Experimental findings from paper PMC7318222, “A Family of Water‐Immiscible, Dipolar Aprotic, Diamide Solvents from Succinic Acid” (Chemsuschem, 2020) are described below.

The target in the assay is T1, TRβ (Homo sapiens, UniProt P10828).
T1 construct: expression construct for the full-length human receptor under investigation; expressed in transfected cells; host or cells: human U2-OS cells (ATCC HTB-96), stably transfected
T1 sequence (P10828 1-461): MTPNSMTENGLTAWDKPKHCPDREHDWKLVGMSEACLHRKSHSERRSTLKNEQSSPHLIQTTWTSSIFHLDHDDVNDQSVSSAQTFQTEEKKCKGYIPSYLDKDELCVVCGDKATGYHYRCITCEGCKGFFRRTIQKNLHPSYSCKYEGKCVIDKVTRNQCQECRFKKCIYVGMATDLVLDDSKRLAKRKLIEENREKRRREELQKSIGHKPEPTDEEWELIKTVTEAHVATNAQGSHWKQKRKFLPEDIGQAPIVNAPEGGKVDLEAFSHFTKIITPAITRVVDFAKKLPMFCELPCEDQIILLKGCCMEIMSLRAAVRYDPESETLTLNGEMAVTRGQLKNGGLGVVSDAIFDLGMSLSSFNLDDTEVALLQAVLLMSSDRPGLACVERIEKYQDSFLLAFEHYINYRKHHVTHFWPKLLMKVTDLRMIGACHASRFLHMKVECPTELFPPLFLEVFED
Description: TRβ CALUX reporter gene assay. The format is cell-based. Further details: key: –: no effect observed up to the highest test concentration. The note with it: PC10, 24 h exposure. The text has this:
2-methylimidazole 99.0%, zinc(II) nitrate hexahydrate ≥99.0%, para-cymene 99.0%, 1,4-dioxane 99.8% (anhydrous), 4-nitroaniline ≥99.0%, 1-octanol ≥99.0%, diglyme ≥99.0%, DMSO-d6 (99.8% D) and chloroform-d (99.8% D) were purchased from Sigma-Aldrich. Toluene ≥99.0%, hexane ≥99.5%, DCM ≥99.5%, chloroform ≥99.5%, DMSO ≥99.0% were purchased from VWR. N,N-diethyl-4-nitroaniline ≥98.0% was purchased from Alfa Aeser. Cyrene was supplied by Circa group. N-butylpyrrolidinone was supplied by Eastman chemicals. N,N-dimethylformamide 99.9% and N,N-dimethylacetamide 99.9% were purchased from Fischer. The flakes of Ultrason® E3020 P Polyarylethersulfone of 55,000 Da were obtained from INGE.BASF, Germany. The CALUX cell lines have been described previously.[1] They are based on human U2-OS cells (ATCC, HTB-96) stably transfected with an expression construct for the full-length human receptor under investigation, and a reporter construct consisting of multimerized responsive elements for the cognate receptor coupled to a minimal promoter element (TATA) and a luciferase gene. Cells were maintained as described previously,[2] using cell culture media and supplements from Fisher Scientific as described in the experimental procedures section. […]
In vitro reporter gene assays
The automated CALUX assays were carried out similarly as described earlier,[12] with some adaptations. In brief, the assay was performed in CO2 independent medium (Fisher Scientific, […]
supplement (Fisher Scientific, 11574466), 10 U/mL penicillin and 10 µg/mL streptomycin. A cell suspension in assay medium was made of 1 × 10^5cells/mL, and white 384-wells plates were seeded with 30 µl cell suspension/well. After 24 h, exposure medium was prepared. A dilution series in 0.5log unit increments of each test compound (in DMSO) was added to a 96-wells plate containing assay medium (2% v/v). Of this exposure mixture, 30 µl was added to the assay plates containing the CALUX cells, resulting in a final DMSO concentration of 1%. Additionally, DMSO blanks and a full dose response curve of the relevant reference compound were included on each plate. All samples were tested in triplicate. The preparation of the compound dilution series as well as the exposure of the cells were performed on a Hamilton StarLET liquid handling robot coupled to a Cytomat incubator.
Directly after exposure, plates were sealed with non-breathing plate seals (Plate sealer, easy seal transparent; Greiner-Bio-One, 676001). After 24 h the exposure medium was removed using an EL406 washer-dispenser (BioTek) and 10 µl/well triton lysisbuffer was added by the EL406.
Subsequently, the luciferase signal was measured in a luminometer (InfinitePro coupled to a Connect Stacker, both TECAN). In order to be able to detect receptor antagonism, several assays were also performed in antagonistic mode. […]
The luminometer data was analysed as follows; the average of the triplicate wells was determined, and the average blank (DMSO) value was subtracted. […] For antagonist- and cytotoxicity experiments, PC20 values were determined instead, which was defined as the concentration where the test compound causes a 20% decrease in the basal signal, which was […]
curve, the signal induction above background (DMSO) was determined, and the concentration where the compound elicited a 1.5-fold increase above background was used as LEC.
(In general: In a reporter assay the amount or activity of a reporter protein is the signal.)
Regarding `CCCCN(CCCC)C(=O)CCC(=O)N(CCCC)CCCC` [TBSA, N,N,N′,N′‐tetrabutylsuccindiamide], the “LEC TRβ” value was “–”.

On to `CCCCN1CCCC1=O` [NBP, N‐Butylpyrrolidinone, reference compound], for which the “LEC TRβ” value is listed as “–”.

As to `CN1CCCC1=O` [NMP, N‐methyl‐2‐pyrrolidone, reference compound], the “LEC TRβ” value is “–”.

As to `CCCCN(CC)C(=O)CCC(=O)N(CC)CCCC` [EBSA, N,N′‐diethyl‐N,N′‐dibutylsuccindiamide], the “LEC TRβ” value is recorded as “–”.

In the case of `CCCCN(C)C(=O)CCC(=O)N(C)CCCC` [MBSA, N,N′‐dimethyl‐N,N′‐dibutylsuccindiamide], the “LEC TRβ” value is reported as “–”.
